Experimental data as given in ChEMBL document CHEMBL1201862, “PubChem BioAssay data set” (2004).
Activity calls are given as the source filed them.

What was measured:
[1] = target: Ras and Rab interactor 1/Tyrosine-protein kinase ABL1 (Homo sapiens, UniProt P00519+Q13671); assay type: functional;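 also: biochemical TR-FRET dose-response test measuring inhibition of binding between Rin1 and Abl proteins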
[2] = target: T1, DNA repair and recombination protein RAD54-like (Homo sapiens, UniProt Q92698); assay: RAD54 Holliday junction migration blockers – biochemical, fluorescence, cherry-picked samples, dose series, confirmation (AID 651657); assay type: functional
T1 sequence (Q92698 whole entry): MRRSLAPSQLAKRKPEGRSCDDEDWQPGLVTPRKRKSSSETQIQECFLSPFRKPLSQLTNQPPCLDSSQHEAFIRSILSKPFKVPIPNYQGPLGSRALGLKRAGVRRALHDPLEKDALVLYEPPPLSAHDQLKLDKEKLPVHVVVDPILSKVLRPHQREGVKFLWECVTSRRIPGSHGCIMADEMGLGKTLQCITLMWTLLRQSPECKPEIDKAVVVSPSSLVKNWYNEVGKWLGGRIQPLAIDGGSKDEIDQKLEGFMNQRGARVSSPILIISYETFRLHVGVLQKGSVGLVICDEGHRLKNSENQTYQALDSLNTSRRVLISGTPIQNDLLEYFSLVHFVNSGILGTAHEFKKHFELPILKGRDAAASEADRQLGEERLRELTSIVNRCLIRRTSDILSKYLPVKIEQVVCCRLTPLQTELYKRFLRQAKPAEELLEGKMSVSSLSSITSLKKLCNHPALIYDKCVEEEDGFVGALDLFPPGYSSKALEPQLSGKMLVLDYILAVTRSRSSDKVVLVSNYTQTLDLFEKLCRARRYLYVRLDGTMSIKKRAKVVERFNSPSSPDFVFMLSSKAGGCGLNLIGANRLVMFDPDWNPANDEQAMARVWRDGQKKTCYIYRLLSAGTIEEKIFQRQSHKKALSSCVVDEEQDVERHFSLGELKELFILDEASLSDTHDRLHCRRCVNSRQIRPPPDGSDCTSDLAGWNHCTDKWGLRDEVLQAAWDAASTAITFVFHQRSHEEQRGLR

[3] = NIH3T3 cell viability loss – ATP luminescence, mouse fibroblasts, counter-screen, dose response (AID 2010); assay type: functional, cell-based;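 also: cells exposed to compound for about 90 hours before reading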
[4] = Trypanosoma cruzi growth suppression in host cells – NIH3T3 host cells, beta-gal luminescence, confirmation (AID 2044); assay type: functional, cell-based;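 also: intracellular parasites grown in NIH/3T3 mouse fibroblasts as host cells; luminescent beta-galactosidase reporter signal from transgenic T. cruzi replicating inside host cells; inhibitors lower the luminescence signal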
[5] = tested on: CHO-K1; assay: (§1) Counterscreen for antagonists of the orexin 1 receptor (OX1R; HCRTR1): Homogeneous time resolved fluorescence (HTRF)-based cell-based dose response assay to identify antagonists of the parental CHO-K1 cell line. [Related pubchem assays (depositor defined):AID434989, AID435008, AID463079, AID485270, AID492963, AID492964, AID492965, AID493232, AID504699, AID504701]; assay type: functional; conditions: Cricetulus griseus
[6] = target: T2, Orexin/Hypocretin receptor type 1 (Homo sapiens, UniProt O43613); assay: Homogeneous Time Resolved Fluorescence (HTRF)-based cell-based high throughput dose response assay for antagonists of the orexin 1 receptor (OX1R; HCRTR1). [Related pubchem assays (depositor defined):AID434989, AID435008, AID463079, AID485270, AID492963, AID492964, AID492965, AID493232, AID504717, AID504718]; assay type: functional
T2 sequence (O43613 whole entry): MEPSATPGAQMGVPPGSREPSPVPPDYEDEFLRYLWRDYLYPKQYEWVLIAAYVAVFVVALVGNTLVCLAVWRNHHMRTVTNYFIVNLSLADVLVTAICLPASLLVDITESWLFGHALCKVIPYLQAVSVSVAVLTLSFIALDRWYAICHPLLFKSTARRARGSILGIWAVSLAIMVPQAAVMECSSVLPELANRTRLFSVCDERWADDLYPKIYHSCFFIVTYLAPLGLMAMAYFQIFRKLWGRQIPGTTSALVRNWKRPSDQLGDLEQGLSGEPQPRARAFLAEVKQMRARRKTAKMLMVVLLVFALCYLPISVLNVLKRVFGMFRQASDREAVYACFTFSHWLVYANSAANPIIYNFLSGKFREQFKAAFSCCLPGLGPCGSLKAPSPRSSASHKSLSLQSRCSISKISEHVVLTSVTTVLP

[7] = target: T3, Orexin receptor type 2 (Homo sapiens, UniProt O43614); assay: Counterscreen assay for antagonists of the orexin 1 receptor (OX1R; HCRTR1): Fluorescence-based cell-based dose response assay for antagonists of the orexin 2 receptor (OX2R; HCRTR2), run by assay provider.; assay type: functional
T3 sequence (O43614 whole entry): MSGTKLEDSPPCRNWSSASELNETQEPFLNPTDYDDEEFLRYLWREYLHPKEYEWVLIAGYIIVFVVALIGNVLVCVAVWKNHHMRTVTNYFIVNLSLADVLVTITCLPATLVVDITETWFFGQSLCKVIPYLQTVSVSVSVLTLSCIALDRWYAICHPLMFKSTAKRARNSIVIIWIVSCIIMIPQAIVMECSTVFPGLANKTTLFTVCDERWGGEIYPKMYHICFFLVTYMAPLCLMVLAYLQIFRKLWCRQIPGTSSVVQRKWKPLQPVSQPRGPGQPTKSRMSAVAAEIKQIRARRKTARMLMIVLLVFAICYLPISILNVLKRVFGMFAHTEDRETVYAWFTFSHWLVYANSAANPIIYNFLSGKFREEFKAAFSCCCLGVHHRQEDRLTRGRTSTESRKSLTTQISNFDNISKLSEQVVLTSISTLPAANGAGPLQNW

[8] = target: T2, Orexin/Hypocretin receptor type 1; assay: Fluorescence-based cell-based high throughput dose response assay for antagonists of the orexin 1 receptor (OX1R; HCRTR1). [Related pubchem assays (depositor defined):AID434989, AID435008, AID463079, AID485270, AID492963, AID492964, AID492965, AID493232, AID504717, AID504718]; assay type: functional
[9] = target: T3, Orexin receptor type 2; assay: Counterscreen assay for antagonists of the orexin 1 receptor (OX1R; HCRTR1): Homogeneous Time Resolved Fluorescence (HTRF)-based cell-based dose response assay for antagonists of the orexin 2 receptor (OX2R; HCRTR2), run by assay provider.; assay type: functional
[10] = as §1, with “Fluorescence-based” for “Homogeneous time resolved fluorescence (HTRF)-based”, “cell-based high throughput” for “cell-based”, “CHO” for “CHO-K1”; assay type: functional
[11] = tested on: HEK293; assay: EBV LMP1 TES2 canonical NF-kB signalling blockers – cell-based, HEK293, luciferase, cherry-pick, dose response (AID 588343); assay type: functional; conditions: Homo sapiens
[12] = target: T4, Mitochondrial peptide methionine sulfoxide reductase (Bos taurus, UniProt P54149); assay type: functional;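 also: absorbance read-out, biochemical high-throughput dose-response screen for MsrA inhibitors, confirmatory; recombinant bovine MsrA coupled to E. coli TrxB with NADPH and selenocystamine; potency is for inhibitors of MsrA activity on DMSO substrate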
T4 sequence (P54149 whole entry): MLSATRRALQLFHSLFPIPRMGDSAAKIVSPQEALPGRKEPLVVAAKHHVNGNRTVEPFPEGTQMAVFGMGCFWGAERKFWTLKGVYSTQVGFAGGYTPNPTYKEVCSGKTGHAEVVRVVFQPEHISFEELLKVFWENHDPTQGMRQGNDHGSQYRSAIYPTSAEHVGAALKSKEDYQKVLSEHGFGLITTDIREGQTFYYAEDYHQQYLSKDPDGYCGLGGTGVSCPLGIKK

[13] = loss of viability in HepG2 cells – cell-based, CellTiter-Glo, cherry-picked, cytotoxicity control for Shn3 inhibitor project, dose response (AID 624134); assay type: functional
[14] = reduction of Shn3 3'UTR-driven luciferase in osteoblasts – cell-based, Clone20 osteoblasts, firefly luciferase, cherry-picked, dose response (AID 624132); assay type: functional;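 also: firefly luciferase luminescence from reporter carrying the Shn3 3'UTR in osteoblasts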
[15] = non-specific 3'UTR reporter inhibition in Clone20-Shn3RL – cell-based, Renilla luciferase, cherry-picked, counter-screen for Shn3 inhibitor project, dose response (AID 624133); assay type: functional

Sequence of Ras and Rab interactor 1/Tyrosine-protein kinase ABL1 (P00519 whole entry): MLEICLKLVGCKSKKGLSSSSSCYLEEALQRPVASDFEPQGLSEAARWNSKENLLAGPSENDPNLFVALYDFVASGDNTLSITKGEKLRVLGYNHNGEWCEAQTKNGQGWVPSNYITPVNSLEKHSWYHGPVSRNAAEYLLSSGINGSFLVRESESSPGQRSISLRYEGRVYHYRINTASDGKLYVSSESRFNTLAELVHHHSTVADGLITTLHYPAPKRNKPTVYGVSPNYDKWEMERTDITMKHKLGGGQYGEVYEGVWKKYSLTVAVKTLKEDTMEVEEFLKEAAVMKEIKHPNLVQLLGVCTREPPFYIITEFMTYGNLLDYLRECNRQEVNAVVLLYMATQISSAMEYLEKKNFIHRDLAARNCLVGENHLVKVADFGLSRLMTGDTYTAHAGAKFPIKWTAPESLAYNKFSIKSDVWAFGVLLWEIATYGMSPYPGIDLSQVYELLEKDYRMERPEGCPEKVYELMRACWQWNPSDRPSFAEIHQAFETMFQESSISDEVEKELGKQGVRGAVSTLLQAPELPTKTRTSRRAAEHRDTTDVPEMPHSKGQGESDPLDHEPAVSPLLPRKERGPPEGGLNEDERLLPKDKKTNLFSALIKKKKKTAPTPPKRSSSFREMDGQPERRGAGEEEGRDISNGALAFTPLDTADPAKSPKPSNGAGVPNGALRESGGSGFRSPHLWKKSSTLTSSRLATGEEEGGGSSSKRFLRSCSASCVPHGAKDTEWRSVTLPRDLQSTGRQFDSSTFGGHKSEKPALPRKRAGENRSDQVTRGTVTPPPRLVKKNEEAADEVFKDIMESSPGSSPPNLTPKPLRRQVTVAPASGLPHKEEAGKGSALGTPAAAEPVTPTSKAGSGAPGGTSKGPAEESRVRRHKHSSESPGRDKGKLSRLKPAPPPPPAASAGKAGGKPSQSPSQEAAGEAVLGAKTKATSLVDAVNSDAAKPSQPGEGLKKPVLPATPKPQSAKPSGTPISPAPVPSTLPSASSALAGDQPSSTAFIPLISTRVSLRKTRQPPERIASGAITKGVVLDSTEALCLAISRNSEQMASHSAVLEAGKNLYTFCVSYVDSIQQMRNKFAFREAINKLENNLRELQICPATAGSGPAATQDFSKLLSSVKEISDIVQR
Sequence of Ras and Rab interactor 1/Tyrosine-protein kinase ABL1 (Q13671 whole entry): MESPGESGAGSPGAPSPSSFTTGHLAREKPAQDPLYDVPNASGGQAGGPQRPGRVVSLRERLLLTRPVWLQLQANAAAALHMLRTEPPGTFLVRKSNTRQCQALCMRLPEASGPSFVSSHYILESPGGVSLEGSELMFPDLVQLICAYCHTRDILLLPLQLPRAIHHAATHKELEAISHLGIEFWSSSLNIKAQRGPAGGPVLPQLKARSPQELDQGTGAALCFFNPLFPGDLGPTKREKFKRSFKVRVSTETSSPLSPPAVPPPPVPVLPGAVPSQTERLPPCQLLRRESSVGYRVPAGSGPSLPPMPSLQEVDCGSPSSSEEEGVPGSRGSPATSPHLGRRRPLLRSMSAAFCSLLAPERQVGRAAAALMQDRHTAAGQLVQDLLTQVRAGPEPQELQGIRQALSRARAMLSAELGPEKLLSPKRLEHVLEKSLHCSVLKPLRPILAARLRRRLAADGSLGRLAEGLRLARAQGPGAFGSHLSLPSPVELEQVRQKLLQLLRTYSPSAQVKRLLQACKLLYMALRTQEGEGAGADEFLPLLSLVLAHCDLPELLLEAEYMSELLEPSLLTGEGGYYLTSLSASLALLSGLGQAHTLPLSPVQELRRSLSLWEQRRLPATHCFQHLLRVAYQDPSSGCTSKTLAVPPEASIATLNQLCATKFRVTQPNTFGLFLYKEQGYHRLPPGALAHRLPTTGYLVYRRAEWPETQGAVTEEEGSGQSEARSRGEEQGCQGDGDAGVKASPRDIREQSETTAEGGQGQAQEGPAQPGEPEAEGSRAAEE

With OCCN1CCN(c2ncnc3c2sc2nc(N4CCOCC4)c4c(c23)CCC4)CC1 the IC50 [1] was 24.2 µM (inactive), the AC50 [2] was 11.4 µM (active) and the EC50 [3] was > 60 µM (not active). The EC50 [4] was 0.241 µM (active).

With COc1ccccc1NC(=O)[C@@H]1CCCN1S(=O)(=O)c1ccc(Cl)cc1 the IC50 [5] was > 66.2 µM (inactive), the IC50 [6] was 1.21 µM (active) and the IC50 [7] was 11 µM (inactive). For the same compound, the IC50 [8] was 13.2 µM (inactive), the IC50 [9] was 6.28 µM (active) and the IC50 [10] was > 49.7 µM (inactive).

With CN(C(=O)c1ccc(NC(=O)Cc2cccc(NC(=O)C3CCN(C(=O)C4CCCCC4)CC3)c2)cc1)C1CC1 the IC50 [1] was 18.9 µM (inactive).

For Cn1ncc(Cl)c1C(=O)NC1CCCC1, the AC50 [11] was > 350 µM (inactive).

In the case of Cn1cnc([N+](=O)[O-])c1S(=O)(=O)Oc1ccccc1, the IC50 [12] is reported as 48 µM (inactive), the AC50 [13] is reported as 42.3 µM (active) and the AC50 [14] is reported as 3.83 µM (active). For the same compound, the AC50 [15] was 24.1 µM (active).
